The source made the active and inactive calls. No cut-off for these calls is given here.
Tests used:
MDA-MB-231 [1] = assay: Cytotoxicity against human MDA-MB-231 cells assessed as growth inhibition at 25 uM by MTT assay; assay type: functional; details: read-out: GI
HT-29 = assay: Cytotoxicity against human HT-29 cells assessed as growth inhibition at 25 uM by MTT assay; assay type: functional; details: read-out: GI
[2] = tested on: Mycolicibacterium smegmatis; assay: Anti-tubercular activity against Mycobacterium smegmatis str. MC2 155 at 30 uM; assay type: functional, organism-based
[3] = Cytotoxicity against HEK293 cells assessed as cell growth at 25 uM by MTT assay; assay type: cell-based; details: human, read-out: Activity
[4] = tested on: Mycolicibacterium smegmatis; assay: Anti-tubercular activity against Mycobacterium smegmatis str. MC2 155 relative to untreated control; assay type: functional
[5] = tested on: Mycolicibacterium smegmatis; assay: Anti-tubercular activity against Mycobacterium smegmatis str. MC2 155; assay type: functional, organism-based
MDA-MB-231 [6] = assay: Cytotoxicity against human MDA-MB-231 cells assessed as growth inhibition by MTT assay; assay type: functional, cell-based

Row | Structure (SMILES) | inhibition of growth at 25 µM (MDA-MB-231 [1]) [%] | inhibition of growth at 25 µM (HT-29) [%] | inhibition [2] | viability at 25 µM [3] [%] | inhibition (INH) [4] | IC50 [5] [µM] | IC50 (MDA-MB-231 [6]) [µM]
1 | COc1ccc(OC)c(-c2nnc(-n3ccnc3)s2)c1 | 33.5 | 21 | inactive | > 74.5 |  |  | 
2 | COc1ccc(OC)c(-c2nnc(N3CCC(=O)CC3)s2)c1 | 32.5 | 33.7 |  | > 74.5 | >=30% | > 100 | 
3 | COc1ccc(OC)c(-c2nnc(N3CCCC(O)C3)s2)c1 (stereo not drawn) | 39.7 | 31.1 |  | > 74.5 | >=30% | > 100 | 
4 | COc1ccc(OC)c(-c2nnc(N3CCNCC3)s2)c1 | 41.6 | 25.5 |  | > 74.5 | >=30% | 88.1 | 
5 | NNC(=O)c1ccncc1 [ISONIAZID] |  |  |  |  |  | 16 | 
6 | COc1ccc(OC)c(-c2nnc(NCc3ccccc3)s2)c1 | 63 | 68.3 |  | < 74.5 | >=30% | 75.6 | 
7 | COc1ccc(OC)c(-c2nnc(-c3ccc(C)c([N+](=O)[O-])c3)s2)c1 | 53.3 | 51.9 | inactive | > 74.5 |  |  | 
8 | COc1ccc(OC)c(-c2nnc(N)s2)c1 | 32 | 20.6 |  | > 74.5 | >=30% | > 100 | 
9 | COc1ccc(OC)c(-c2nnc(Cl)s2)c1 | 33.7 | 8.81 |  | > 74.5 | >=30% | 75.6 | 
10 | COc1ccc(OC)c(-c2nnc(NCc3ccc(Br)cc3)s2)c1 | 51.5 | 45.4 |  | < 74.5 | >=30% | > 100 | 
11 | COc1ccc(OC)c(-c2nnc(-n3ccc4cc(OC)ccc43)s2)c1 | 24.7 | 5.65 | inactive | > 74.5 |  |  | 
12 | COc1ccc(OC)c(-c2nnc(N3CCOCC3)s2)c1 | 31.2 | 18.2 |  | > 74.5 | >=30% | > 100 | 
13 | COc1ccc(OC)c(-c2nnc(NCc3cccc(C(F)(F)F)c3)s2)c1 | 51.2 | 52.6 |  | < 74.5 | >=30% | 40.9 | 
14 | COc1ccc(OC)c(-c2nnc(N3CCCCC3)s2)c1 | 32.8 | 3.67 | inactive | > 74.5 |  |  | 
15 | COc1ccc(CN2CCN(c3nnc(-c4cc(OC)ccc4OC)s3)CC2)cc1 | 36.5 | 39.8 |  | > 74.5 | >=30% | 80.3 | 
16 | COc1cccc2c1C(=O)c1c(O)c3c(c(O)c1C2=O)C[C@@](O)(C(=O)CO)C[C@@H]3O[C@H]1C[C@H](N)[C@H](O)[C@H](C)O1 [DOXORUBICIN] |  |  |  |  |  |  | 1
17 | COc1ccc(OC)c(-c2nnc(N3CCC(Cc4ccccc4)CC3)s2)c1 | 33.6 | 51 |  | > 74.5 | >=30% | 65.7 | 
18 | COc1ccc(OC)c(CNc2nnc(-c3cc(OC)ccc3OC)s2)c1 | 30.2 | 47.2 |  | > 74.5 | >=30% | > 100 | 
19 | COc1ccc(OC)c(-c2nnc(NCc3ccc(Cl)cc3)s2)c1 | 53.8 | 68.7 |  | < 74.5 | >=30% | > 100 | 
20 | CO[C@H]1/C=C/O[C@@]2(C)Oc3c(C)c(O)c4c(O)c(c(/C=N/N5CCN(C)CC5)c(O)c4c3C2=O)NC(=O)/C(C)=C\C=C\[C@H](C)[C@H](O)[C@@H](C)[C@@H](O)[C@@H](C)[C@H](OC(C)=O)[C@@H]1C [RIFAMPIN] |  |  |  |  |  | 1.87 | 
21 | COc1ccc(OC)c(-c2nnc(N3CCCC3)s2)c1 | 38.1 | 18.8 | inactive | > 74.5 |  |  | 
22 | CCN1CCN(c2nnc(-c3cc(OC)ccc3OC)s2)CC1 | 34.6 | 9.91 |  | > 74.5 | >=30% | > 100 | 
